According to the NIST ThermoML archive (doi:10.1021/je8006698):
Numbers after ± are expanded uncertainties.

Conditions: 298.15 K; 101.33 kPa; Liquid; Pycnometric method

Structure (SMILES)	mass density [kg/m3]
CCC(C)(C)OC [2-methoxy-2-methylbutane]	765.68 ± 0.69
CCCCO [butan-1-ol]	805.87 ± 0.72
CCC(C)O (stereo not drawn) [butan-2-ol]	802.73 ± 0.72
CCO [ethanol]	785.29 ± 0.71
CO [methanol]	786.64 ± 0.71
CCCO [propan-1-ol]	799.89 ± 0.72
CC(C)O [propan-2-ol]	781.34 ± 0.7
O [water]	997.17 ± 0.9
